ChEMBL document CHEMBL2434942, “β-Ionone derived chalcones as potent antiproliferative agents” (Eur J Med Chem, 2013)
Active and inactive are the calls of the source. The calls are words filed in the database; no cut-off is given here.

Legend:
[1] = Cytotoxicity against human Hep cells after 48 hrs by SRB assay; format: functional, cell-based
[2] = system: HeLa; assay: Cytotoxicity against human HeLa cells after 48 hrs by SRB assay; format: functional, cell-based
[3] = system: IMR-32; assay: Cytotoxicity against human IMR32 cells after 48 hrs by SRB assay; format: functional, cell-based; conditions: IMR-32, 48 h
[4] = system: PC-3; assay: Cytotoxicity against human PC3 cells after 48 hrs by SRB assay; format: functional, cell-based; conditions: PC-3, 48 h
[5] = system: MCF7; assay: Cytotoxicity against human MCF7 cells after 48 hrs by SRB assay; format: functional, cell-based; conditions: MCF7, 48 h
[6] = system: CHO; assay: Induction of apoptosis in CHO cells assessed as necrotic cells at 15 uM after 12 hrs using Annexin V/PI staining by flow cytometry (reference value: 3%); format: functional, Cricetulus griseus
[7] = system: CHO; assay: Induction of apoptosis in CHO cells assessed as late apoptotic cells at 15 uM after 12 hrs using Annexin V/PI staining by flow cytometry (reference value: 1%); format: functional, Cricetulus griseus
[8] = system: CHO; assay: Induction of apoptosis in CHO cells assessed as viable cells at 15 uM after 12 hrs using Annexin V/PI staining by flow cytometry (reference value: 91.8%); format: functional; conditions: Cricetulus griseus, read-out: Activity
[9] = system: CHO; assay: Induction of apoptosis in CHO cells assessed as early apoptotic cells at 15 uM after 12 hrs using Annexin V/PI staining by flow cytometry (reference value: 4.3%); format: functional, Cricetulus griseus
[10] = system: CHO; assay: Induction of apoptosis in CHO cells assessed as necrotic cells at 5 uM after 12 hrs using Annexin V/PI staining by flow cytometry (reference value: 3%); format: functional, Cricetulus griseus
[11] = system: CHO; assay: Induction of apoptosis in CHO cells assessed as late apoptotic cells at 5 uM after 12 hrs using Annexin V/PI staining by flow cytometry (reference value: 1%); format: functional, Cricetulus griseus
[12] = system: CHO; assay: Induction of apoptosis in CHO cells assessed as viable cells at 5 uM after 12 hrs using Annexin V/PI staining by flow cytometry (reference value: 91.8%); format: functional; conditions: Cricetulus griseus, read-out: Activity
[13] = system: CHO; assay: Induction of apoptosis in CHO cells assessed as early apoptotic cells at 5 uM after 12 hrs using Annexin V/PI staining by flow cytometry (reference value: 4.3%); format: functional, Cricetulus griseus
[14] = system: CHO; assay: Induction of apoptosis in CHO cells assessed as necrotic cells at 10 uM after 12 hrs using Annexin V/PI staining by flow cytometry (reference value: 3%); format: functional, Cricetulus griseus
[15] = system: CHO; assay: Induction of apoptosis in CHO cells assessed as late apoptotic cells at 10 uM after 12 hrs using Annexin V/PI staining by flow cytometry (reference value: 1%); format: functional, Cricetulus griseus
[16] = system: CHO; assay: Induction of apoptosis in CHO cells assessed as viable cells at 10 uM after 12 hrs using Annexin V/PI staining by flow cytometry (reference value: 91.8%); format: functional; conditions: Cricetulus griseus, read-out: Activity
[17] = system: CHO; assay: Induction of apoptosis in CHO cells assessed as early apoptotic cells at 10 uM after 12 hrs using Annexin V/PI staining by flow cytometry (reference value: 4.3%); format: functional, Cricetulus griseus
[18] = system: CHO; assay: Cell cycle arrest in CHO cells assessed as accumulation at sub-G0 phase at 15 uM after 12 hrs using propidium iodide staining by FACS analysis (reference value: 19.8%); format: functional, Cricetulus griseus
[19] = system: CHO; assay: Cell cycle arrest in CHO cells assessed as accumulation at sub-G0 phase at 5 uM after 12 hrs using propidium iodide staining by FACS analysis (reference value: 19.8%); format: functional, Cricetulus griseus
[20] = system: CHO; assay: Cell cycle arrest in CHO cells assessed as accumulation at sub-G0 phase at 10 uM after 12 hrs using propidium iodide staining by FACS analysis (reference value: 19.8%); format: functional, Cricetulus griseus
[21] = system: CHO; assay: Induction of apoptosis in CHO cells assessed as cell shrinkage, membrane blebbing and formation of apoptotic body at 5 to 15 uM after 6 to 12 hrs by inverted light microscopic analysis; format: functional, cell-based; conditions: Cricetulus griseus
[22] = system: CHO; assay: Induction of apoptosis in CHO cells assessed as cell shrinkage, membrane blebbing and formation of apoptotic body at 5 to 15 uM after 24 hrs by inverted light microscopic analysis; format: functional, cell-based; conditions: Cricetulus griseus
[23] = system: CHO; assay: Cytotoxicity against CHO cells after 48 hrs by SRB assay; format: functional, cell-based; conditions: Cricetulus griseus

Compound	IC50 [1]	IC50 [2]	IC50 [3]	IC50 [4]	IC50 [5]	further results
CC1=C(/C=C/C(=O)/C=C/c2ccccc2F)C(C)(C)CCC1	23.6 µM	41.9 µM	15.6 µM	3.4 µM	11 µM	–
CC1=C(/C=C/C(=O)/C=C/c2cccc3ccccc23)C(C)(C)CCC1	> 100 µM	65.4 µM	43.8 µM	56.4 µM	53.2 µM	–
CC1=C(/C=C/C(=O)/C=C/c2ccccc2[N+](=O)[O-])C(C)(C)CCC1	44.9 µM	36.1 µM	13.5 µM	9.5 µM	10.1 µM	–
CC1=C(/C=C/C(=O)/C=C/c2ccccc2Br)C(C)(C)CCC1	16.3 µM	57.9 µM	16.3 µM	11.4 µM	20.7 µM	–
COc1cc(/C=C/C(=O)/C=C/C2=C(C)CCCC2(C)C)cc(OC)c1OC	45.5 µM	73.2 µM	55.5 µM	32.6 µM	18.7 µM	–
COc1ccc(/C=C/C(=O)/C=C/C2=C(C)CCCC2(C)C)cc1	> 100 µM	15.7 µM	23.9 µM	58.7 µM	19.6 µM	–
CC1=C(/C=C/C(=O)/C=C/c2ccc(Br)cc2)C(C)(C)CCC1	34.5 µM	88.8 µM	10.4 µM	18.9 µM	20.1 µM	–
COc1ccccc1/C=C/C(=O)/C=C/C1=C(C)CCCC1(C)C	38.9 µM	88.2 µM	19.2 µM	14.2 µM	13.4 µM	–
CC1=C(/C=C/C(=O)/C=C/c2ccoc2)C(C)(C)CCC1	> 100 µM	88.4 µM	56.8 µM	50.3 µM	100 µM	–
CC1=C(/C=C/C(=O)/C=C/c2ccc([N+](=O)[O-])cc2)C(C)(C)CCC1	55.5 µM	28.7 µM	3.2 µM	1.9 µM	5.5 µM	Activity [6]: 39.1%; Activity [7]: 7.5%; viability at 15 µM [8]: 52.3%; Activity [9]: 1.1%; Activity [10]: 19.4%; Activity [11]: 5.1%; viability at 5 µM [12]: 74.7%; Activity [13]: 0.8%; Activity [14]: 33.3%; Activity [15]: 5.8%; viability at 10 µM [16]: 59.5%; Activity [17]: 1.4%; Activity [18]: 48.1%; Activity [19]: 30.5%; Activity [20]: 36%; Activity [21]: Active; Activity [22]: Active; Activity [23]: Dose-dependent effect; IC50 [23]: 10 µM
CC1=C(/C=C/C(=O)/C=C/c2ccccc2Cl)C(C)(C)CCC1	54.2 µM	21.8 µM	13.7 µM	11.3 µM	54.6 µM	–
CC1=C(/C=C/C(=O)/C=C/c2ccc(F)cc2)C(C)(C)CCC1	55.8 µM	32.2 µM	7.4 µM	8.2 µM	6.2 µM	–
CC1=C(/C=C/C(=O)/C=C/C=C/c2ccccc2)C(C)(C)CCC1	> 100 µM	> 100 µM	23.4 µM	35.4 µM	46.7 µM	–
CC1=C(/C=C/C(=O)/C=C/c2ccc(C#N)cc2)C(C)(C)CCC1	45.6 µM	22.2 µM	23.4 µM	11.9 µM	13.2 µM	–
CC1=C(/C=C/C(=O)/C=C/c2ccccc2)C(C)(C)CCC1	62.2 µM	70.2 µM	20.4 µM	12.4 µM	10.6 µM	–
COc1ccc(/C=C/C(=O)/C=C/C2=C(C)CCCC2(C)C)cc1OC	72.4 µM	85 µM	29.2 µM	30.2 µM	35.6 µM	–
CC1=C(/C=C/C(=O)/C=C/c2cccnc2)C(C)(C)CCC1	45.6 µM	17.4 µM	25.3 µM	10.2 µM	15.5 µM	–
CO[C@@]12[C@H](COC(N)=O)C3=C(C(=O)C(C)=C(N)C3=O)N1C[C@@H]1N[C@@H]12 [MITOMYCIN]	–	2 µM	–	–	–	–
CC1=C(/C=C/C(=O)/C=C/c2ccc(Cl)cc2)C(C)(C)CCC1	90.6 µM	33.2 µM	52.3 µM	9.5 µM	10.2 µM	–
CC1=C(/C=C/C(=O)/C=C/c2ccc(C)cc2)C(C)(C)CCC1	44.1 µM	20.4 µM	19.2 µM	21.5 µM	23.8 µM	–
CC[C@@]1(O)C(=O)OCc2c1cc1n(c2=O)Cc2cc3ccccc3nc2-1 [CAMPTOTHECIN]	–	–	–	–	–	Activity [14]: 21.6%; Activity [15]: 2.4%; viability at 10 µM [16]: 74.8%; Activity [17]: 1.2%; Activity [20]: 50.5%
COc1ccccc1/C=C/C=C/C(=O)/C=C/C1=C(C)CCCC1(C)C	65.3 µM	33.5 µM	72.4 µM	25.3 µM	55.4 µM	–
CC1=C(/C=C/C(=O)/C=C/c2ccccc2C)C(C)(C)CCC1	41 µM	> 100 µM	63.2 µM	44.1 µM	44.6 µM	–
O=c1[nH]cc(F)c(=O)[nH]1 [FLUOROURACIL]	0.5 µM	–	1.3 µM	–	–	–
CC(=O)O[C@H]1C(=O)[C@@]2(C)[C@H]([C@H](OC(=O)c3ccccc3)[C@]3(O)C[C@H](OC(=O)[C@H](O)[C@@H](NC(=O)c4ccccc4)c4ccccc4)C(C)=C1C3(C)C)[C@]1(OC(C)=O)CO[C@@H]1C[C@@H]2O [PACLITAXEL]	–	–	–	1.5 µM	0.5 µM	–
CC1=C(/C=C/C(=O)/C=C/c2ccc(Cl)c(Cl)c2)C(C)(C)CCC1	> 100 µM	> 100 µM	72.4 µM	35.5 µM	53.5 µM	–
